This note sets out measurements from publication PMC8069289 (Molecules, 2021).

The test system of series [1] is HL-60 cells. Nature of the series: Cytotoxicity assay, Trypan blue exclusion test. The format is cell-based, human. The settings on record: HL-60, 72 h. How it is done:
Promyelocytic human leukaemia (HL-60) immortal cells originated from a person suffering myeloid leukaemia were grown as suspension cultures in RPMI-1640 medium ([…], Sigma-Aldrich, St. Louis, MO, USA) supplemented with 10% heat-inactivated foetal bovine serum (S01805, Linus, Madrid, Spain), L-glutamine 2 mM (G7513, Sigma-Aldrich, St. Louis, MO, USA) and 1× antibiotic-antimycotic solution from a 100× stock solution containing 10,000 units of penicillin, 10 mg of streptomycin and 25 μg of amphotericin B per mL ([…], Sigma-Aldrich, St. Louis, MO, USA). Cells were incubated at 37 °C in a 80% humidified atmosphere 5% CO2. Cultures were plated at 2.5 × 10^4 cells/mL density in 10 mL culture bottles and passed every 2 days. Trypan blue exclusion test was used to determine the cell viability exerted by the assayed compounds, according to our standard procedures. […] After culture, cells were stained with a 1:1 volume ratio of Trypan blue dye (T8154, Sigma-Aldrich, St. Louis, MO, USA) and counted in a Neubauer chamber at 100× magnification. The survival percentage of each treatment compared with the control was recorded in three independent replicates. Data are expressed as mean ± standard deviation of the mean (SEM).

Series [2] relates to HL-60 cells. Briefly: Internucleosomal DNA fragmentation. The format is cell-based, human. The settings on record: HL-60, 5 h, all tested concentrations. How it is done: DNA fragmentation induction was determined as described by Anter et al. (2014). […] After treatment, genomic DNA was extracted using a commercial kit (Blood Genomic DNA Extraction Mini Spin Kit, Canvax Biotech, Córdoba, Spain). Then, DNA was incubated overnight with RNase at 37 °C and quantified in a spectrophotometer (Nanodrop® ND-1000, NanoDrop Technologies, Inc., Wilmington, DE, USA). Finally, 1200 ng DNA were electrophoresed in a 2% agarose gel for 120 min at 50 V, stained with ethidium bromide and visualized under UV light. The apoptosis process is recognised by the appearance of internucleosomal DNA fragments that are multiple of 200 base pairs.

In series [3] the test system is HL-60 cells. Briefly: Alkaline SCGE (comet assay), Tail Moment. The format is cell-based, human. The settings on record: HL-60, 5 h. How it is done:
DNA integrity was assayed by SCGE as described by Olive and Banáth with minor modifications. […] After treatment, cells were washed twice and adjusted to 6.25 × 10^5 cells/mL in PBS. Electrophoresis gels were prepared pouring a 1:4 dilution (cells in liquid low-melting-point agarose at 40 °C, […], Sigma) into slides. Gels were covered with a coverslip and allowed to solidify at RT for 30 min. Once the slides solidified, the coverslips were carefully removed and slides were bathed in freshly prepared lysing solution (2.5 M NaCl, 100 mM Na-EDTA, 10 mM Tris, 250 mM NaOH, 10% DMSO and 1% Triton X-100; pH = 13) for 1 h at 4 °C. Thereafter, slides were equilibrated in alkaline electrophoresis buffer (300 mM NaOH and 1 mM Na-EDTA, pH = 13) for 20-30 min at 4 °C. Once equilibrated, the slides were underwent electrophoresis (12 V, 400 mA for 8 min) in the dark and were immediately neutralized in cold neutral solution (0.4 M Tris-HCl buffer, pH 7.5) for 10 min. […] Gels were stained with 7 μL propidium iodide and photographed in a DM2500 microscope (Leica Microsystems GmBH, Wetzlar, Germany) at 400× magnification. […] A one-way ANOVA and post-hoc Tukey's test with SPSS Statistics for Windows, Version 19.0 (2010, IBM Corporation, Armonk, NY, USA) was applied to determine the effect of the tested compounds on HL-60 cell DNA integrity from the analyses of Tail Moment (TM) data.

For series [4], the system named is LINE-1 repetitive sequences of HL-60 cells. Nature of the series: Methylation status by qMSP, LINE-1. The note with it: HL-60, 5 h. The format is cell-based, human. On the procedure: (§1) Then, DNA was extracted similarly to previously described DNA fragmentation assay. After that, the DNA was converted with bisulphite (EZ DNA Methylation-Gold™ Kit, Zymo Research, Irvine, CA, USA). Bisulphite-modified DNA was used for fluorescence-based real-time quantitative Methylation-Specific PCR (qMSP) using 5 µM of each forward and reverse primer (Isogen Life Science BV, Utrecht, The Netherlands), 2 µL of iTaq™ Universal SYBR® Green Supermix (Bio-Rad Laboratories, Inc., Hercules, CA, USA); it contains antibody-mediated hot-start iTaq DNA polymerase, dNTPs, MgCl2, SYBR® Green I dye, enhancers, stabilizers and a blend of passive reference dyes including ROX and fluorescein) and 25 ng of bisulphite converted genomic DNA.
(§2) PCR conditions included initial denaturalisation at 95 °C for 3 min and amplification which consisted of 45 cycles at 95 °C for 10 s, 60 °C for 15 s and 72 °C for 15 s, taking picture at the end of each elongation cycle. After that, melting curve was determined increasing 0.5 °C each 0.05 s from 60 °C to 95 °C and taking pictures.
QMSP was carried out in 48 well plates in MiniOpticon Real-Time PCR System (MJ Mini Personal Thermal Cycler, Bio-Rad) and were analysed by Bio-Rad CFX Manager 3.1 Software. The housekeeping Alu-C4 was used as a reference to correct for total DNA input. Alu-C4 and the target repetitive elements Alu-M1, LINE-1 and Sat-α were obtained from Isogen Life Science (Utrecht, The Netherlands) and their sequences are shown in Table 4. Each sample was analysed in triplicate.
The results of each CT were obtained from each qMSP. Data were normalised with the housekeeping Alu C4 using the Nikolaidis et al. and Liloglou et al. comparative CT method (ΔΔCT). One-way ANOVA and post-hoc Tukey’s test are used to evaluate the differences between the tested compounds, repetitive elements and concentrations.

Series [5] has as its system Sat-α repetitive sequences of HL-60 cells. Briefly: Methylation status by qMSP, Sat-α. The format is cell-based, human. The note with it: HL-60, 5 h. How it is done: as §1, §2
QMSP was carried out in 48 well plates in MiniOpticon Real-Time PCR System (MJ Mini Personal Thermal Cycler, Bio-Rad) and were analysed by Bio-Rad CFX Manager 3.1 Software. The housekeeping Alu-C4 was used as a reference to correct for total DNA input. […] Each sample was analysed in triplicate. […]

The next series relates to Drosophila melanogaster. Nature of the series: Antitoxicity assay, combined treatment with 0.15 M H2O2.

“Also recorded” adds a separate entry of the source. Marks after values point to notes of the source that are not given here.

Experimental for Drosophila melanogaster: Toxicity was assayed according to our standard protocols. CRB and SFRB were tested at five concentrations: 1, 4, 8.12, 32.5 and 130 mg/mL and 0.16, 0.625, 1.25, 5 and 20 mg/mL, respectively. […] Tested groups consisted of larvae fed with Drosophila Instant Medium (Formula 4–24, Carolina Biological Supply, Burlington, NC, USA) supplemented with the assessed compounds concentrations. Emerging adults of all groups were counted and toxicity was determined as the percentage of hatched individuals in each treatment compared with the negative control.

Regarding `OC[C@H]1OC(O)[C@H](O)[C@@H](O)[C@@H]1O` (stereo partly drawn) [GLU, Glucose], in the series on HL-60 cells [1] (Homo sapiens, mean ± SD in Figure 3, read-out: IC50 (inhibitory concentration 50)), the IC50 is 42.7 mM. The “internucleosomal DNA fragmentation (ladder pattern)” value with HL-60 cells [2] is listed as “did not induce DNA fragmentation”. Besides, in the series with HL-60 cells [3] (three lowest concentrations of the cytotoxicity assay), the “TM versus concurrent control (DNA damage)” value was “significantly induce TM values higher than the concurrent control”. In addition, the “methylation status of LINE elements” value in series [4] (11 mM GLU) is listed as “hypomethylated”. Also, in series [4] (350 mM GLU), the “methylation status of LINE repetitive element” value is “reduced the methylation status”. The “methylation status of satellite alpha sequences” value in series [5] (350 mM GLU) was “hypermethylated”. The “Survival (%) Combined Treatment” value in the series with Drosophila melanogaster (GLU 2.7 mM + 0.15 M hydrogen peroxide) was 60%; in the series on Drosophila melanogaster (GLU 11 mM + 0.15 M hydrogen peroxide), 84.35 * %; with Drosophila melanogaster (GLU 21.86 mM + 0.15 M hydrogen peroxide), 88.65 * %; with Drosophila melanogaster (GLU 87.5 mM + 0.15 M hydrogen peroxide) it was 79 * %; with Drosophila melanogaster (GLU 350 mM + 0.15 M hydrogen peroxide), 72 * %.
Regarding `NCCS(=O)(=O)O` [TAU, 2-aminoethanesulfonic acid], in the series on HL-60 cells [1] (2 mM TAU), the cell proliferation entry was “induced a decrease of cell proliferation”. The cytotoxic activity result in the series with HL-60 cells [1] (any assayed concentration) is recorded as “did not show cytotoxic activity”. Further, the “IC50 (inhibitory concentration 50)” value with HL-60 cells [1] (mean ± SD in Figure 3) is reported as “not found”. Moreover, the “internucleosomal DNA fragmentation (ladder pattern)” value in the series with HL-60 cells [2] is given as “did not induce DNA fragmentation”. Moreover, the “TM versus concurrent control (DNA damage)” value in the series on HL-60 cells [3] (0.25 and 2 mM TAU) is listed as “significantly induce TM values higher than the concurrent control”. In addition, in the series on HL-60 cells [3] (concentration not given), the “Tail Moment (TM) of representative photograph” value amounted to 2.49. Besides, in series [4] (TAU highest concentration (32 mM)), the “methylation status of LINE-1” value is “reduced this methylation status; also recorded: induced hypomethylation”. In series [5] (both tested concentrations of TAU), the “methylation status of satellite alpha sequences” value is recorded as “significantly hypermethylated”. The “Survival (%) Combined Treatment” value was 40.76% in the series on Drosophila melanogaster (TAU 0.25 mM + 0.15 M hydrogen peroxide); 57.69 * % in the series on Drosophila melanogaster (TAU 1 mM + 0.15 M hydrogen peroxide); 56.9 * % with Drosophila melanogaster (TAU 2 mM + 0.15 M hydrogen peroxide); 40% in the series on Drosophila melanogaster (TAU 8 mM + 0.15 M hydrogen peroxide); 42.3% in the series with Drosophila melanogaster (TAU 32 mM + 0.15 M hydrogen peroxide).
